# Reference: PMC4222603, “Dual inhibition of HIV-1 replication by integrase-LEDGF allosteric inhibitors is predominant at the post-integration stage” (Retrovirology, 2013)
# Where two headings read alike, the source gives them in different places.
# Legend:
# [1] = system: NL4-3 Protease L10R, M46I, L63P, V82T, I84V; test: Antiviral assay on PI-resistant virus; type: cell-based, HIV-1; conditions: ratio EC50 resistant virus / wt virus
# [2] = system: VSV-G-pseudotyped HIV-1 Δenv-Luc NL4-3; test: Time-of-addition experiment, single-round infection of MT4 cells; type: cell-based; conditions: 25 μM (saturating)
# [3] = system: NL4-3 IN T174I mutant virus; type: cell-based, HIV-1
# IN NL4-3 wt = target: T1, IN NL4-3 wt (Human immunodeficiency virus type 1 group M subtype B, UniProt P12497); design: species or system HIV-1; conditions: pre-incubation with 100 μM compound
# T1 construct: loaded on a Superdex 200 16/600 PG column (for full length IN); made in house
# Procedure: SEC was performed with a Superdex 200 10/300 GL column (GE Healthcare) using a flow-rate of 0.4 mL/min in buffer containing 50 mM HEPES, pH 7.5, 1 M NaCl, 7 mM CHAPS, 5 mM MgCl2, 10 mM DTT, 10% glycerol at room temperature. […] Protein elution was monitored at 280 nm.
# HxB2 HIV-1 = test: Antiviral assay in MT4 cells infected with HxB2; type: cell-based; conditions: Human immunodeficiency virus 1, HXB2, MT4; Table 1; read-out: HxB2 EC50 (MT4 assays)
# IN-LEDGF/p75 interaction = IN-LEDGF/p75 interaction (Human immunodeficiency virus type 1 group M subtype B, UniProt P12497); test: biochemical
# Procedure: IN-LEDGF HTRF® assay was performed in 384-well low volume black polystyrene plates (Corning) using IN-LEDGF assay buffer (25 mM Tris–HCl pH 7.4, 150 mM NaCl, 2 mM MgCl2, 0.4 M KF, 0.1% Igepal CA-630, 0.1% bovine serum albumin, 1 mM DTT). […] The HTRF ratio was converted to % inhibition and analyzed by fitting a sigmoidal dose–response equation with Hill slope to determine the IC50 of the compound.
# [4] = target: T2, IN 3′ processing activity (Human immunodeficiency virus type 1 group M subtype B, UniProt P12497); test: IN 3′ processing radioactive assay; type: biochemical, HIV-1; conditions: 0.01 to 100 μM
# T2 construct: were carried out at 37°C with the full-length HIV-1 IN
# Description: Sequences of the different oligonucleotides (ODN) substrates are U5B: 5′-[…]-3′, U5A: 5′- […]-3′ and U5B-2: 5′-[…]-3′. ODNs were purchased from Eurogentec and further purified by electrophoresis in a denaturing 16% acrylamide/urea gel. For activity assays, ODNs (U5B and U5B-2) were radiolabelled with T4 polynucleotide kinase (New England Biolabs) and γ[^32-P]ATP (3000 Ci/mmol) (Amersham), and purified on a Sephadex G-10 column (GE Healthcare). Double-stranded ODNs (U5B with U5A and U5B-2 with U5A used for 3′-processing and strand transfer reactions, respectively) were obtained by mixing equimolar amounts of complementary strands in the presence of 100 mM NaCl.
# IN activity assays – 3′-processing, strand transfer – were carried out at 37°C with the full-length HIV-1 IN, in a buffer containing 10 mM HEPES (pH 7.2), 1 mM DTT, 7.5 mM MgCl2 in the presence of 6.25 nM DNA (3′-processing) or 12.5 nM DNA (strand transfer) as described previously. For negative control, 100 mM Na2EDTA was added to the reaction before incubation. Products were separated by electrophoresis in denaturing 16% acrylamide/urea gels. Gels were analysed with a Molecular Dynamics STORM phosphoimager and quantified with ImageQuant™ 4.1 software.
# [5] = system: NL4-3 RT M41L, D67N, K103N, M184V, L210W, T215Y; test: Antiviral assay on Multi-drug (NRTI + NNRTI) resistant virus; type: cell-based, HIV-1; conditions: ratio EC50 resistant virus / wt virus; NRTI + NNRTI mutations
# HIV-1 NL4-3 = test: Antiviral assay in MT-4 cells, multiple-round infection, CellTiter-Glo; type: cell-based
# Procedure: MT-4 cells growing exponentially at the density of 10^6/mL were infected with HIV-1 strain NL4-3 at a MOI (multiplicity of infection) of 0.001 for 2 h. The cells were washed with PBS and aliquoted, using 100 μL fresh complete RPMI, into 96-well white plates (Corning) in the presence of different concentrations of compounds.
# [6] = system: NL4-3 HIV-1 virus bearing the T174I mutation in IN; test: microbe, parasite or virus in culture; type: cell-based; conditions: Human immunodeficiency virus 1, NL43, read-out: EC50 on NL4-3 IN T174I mutant
# [7] = system: HIV-1 LAV virions produced by HeLa-LAV cells; test: Virions produced by compound-treated HeLa-LAV cells: p24 and infectivity; type: cell-based
# [8] = system: VSV-G-pseudotyped NL4-3Δenv-luc; test: microbe, parasite or virus in culture; type: cell-based, HIV-1
# [9] = system: NL4-3 Integrase G140S, Q148H; test: Antiviral assay on INSTI-resistant virus; type: cell-based, HIV-1; conditions: ratio EC50 resistant virus / wt virus
# [10] = target: T3, IN-CCD/LEDGF-IBD interaction (Human immunodeficiency virus type 1 group M subtype B, UniProt P12497, F1332K); test: HTRF-based CCD-IBD interaction assay; type: binding, HIV-1; conditions: Table 1
# T3 construct: cloning the integrase region (residues 50 to 202, encoding the catalytic core domain); made in house
# Description: All HTRF® conjugated monoclonal antibodies were purchased from Cisbio Bioassays.
# HIV-1 mutant IN A128T = test: Antiretroviral activity on HIV-1 mutant IN A128T; type: cell-based
structure (smiles),measurement,setting,value
"Cc1nc2c(c(-c3ccc4c(c3)CCCO4)c1C(OC(C)(C)C)C(=O)O)CCCC2 (stereo not shown) [Mut101, 2-(tert-butoxy)-2-[4-(3,4-dihydro-2H-1-benzopyran-6-yl)-2-methyl-5,6,7,8-tetrahydroquinolin-3-yl]acetic acid]",EC50 fold change PI,[1],1
same,Behaviour in time-of-addition experiment,[2],behaved as an inhibitor of integration
same,Infectivity of NL4-3 IN T174I virus produced in presence of compound,[3],insensitive
same,Effect on IN wt oligomerization state (SEC),IN NL4-3 wt,higher IN oligomerization state
same,EC50,HxB2 HIV-1,92 nM
same,IC50,"IN-LEDGF/p75 interaction; IC50 on IN-LEDGF interaction inhibition, LEDGF competition, increased value, highest LEDGF/p75 competing concentration (range 7.5 nM to 480 nM)",680 nM
same,IC50,"IN-LEDGF/p75 interaction; IC50 on IN-LEDGF interaction inhibition, LEDGF competition, starting value, lowest LEDGF/p75 competing concentration (range 7.5 nM to 480 nM)",97 nM
same,IC50,"IN-LEDGF/p75 interaction; IN-LEDGF IC50, Table 1, HTRF, full length proteins",200 nM
same,Maximum inhibition of IN 3′ processing,[4],25-30%
same,EC50 fold change Multi-drug,[5],1
same,EC50,"HIV-1 NL4-3; Human immunodeficiency virus 1, NL43, MT4, Table 1, read-out: NL4-3 EC50 (MT4 assays)",540 nM
same,EC50,"HIV-1 NL4-3; Human immunodeficiency virus 1, NL43, MT4, Table 3, mean of two independent experiments, read-out: EC50 NL4-3 WT",470 nM
same,EC50,"HIV-1 NL4-3; Human immunodeficiency virus 1, NL43, MT4 cells, mean of six independent experiments, read-out: NL4-3 EC50 Multiple-round",490 ± 40 nM
same,EC50,[6],> 50000 nM
same,Virucidal effect on free virus released in supernatant,[7],unable to inactivate free virus
same,Amount of p24 produced by treated HeLa-LAV cells,"[7]; compared with Raltegravir, DMSO or Mut063 treatment",comparable
same,Infectivity of virions from treated HeLa-LAV cells,[7]; luciferase assay in TZM cells,strong virus infectivity defects
same,SR/MR ratio,[8],18
same,EC50,"[8]; Human immunodeficiency virus 1, NL43, MT4, read-out: NL4-3 EC50 Single-round",9000 ± 1500 nM
same,EC50 fold change INSTIs,[9],1
same,IC50,[10],230 nM
same,ARV activity on HIV-1 mutant IN A128T,HIV-1 mutant IN A128T,full ARV activity
